# Test results taken from the NIST ThermoML archive (doi:10.1016/j.jct.2016.11.019).
# ± gives the expanded uncertainty stated by the source.
# Assay: Molar enthalpy of transition or fusion
# Conditions: Crystal; DSC
structure (smiles),measurement,value
Nc1cc(Cl)ccc1C(=O)O [2-amino-4-chlorobenzoic acid],Molar enthalpy of transition or fusion,28.8 ± 0.99 kJ/mol
